Assay [1] deals with T1, hNav1.4 (Homo sapiens, UniProt P35499, F1586C).
T1 construct: gene SCN4A
Nature of the assay: whole-cell patch clamp, peak INa. Format: cell-based. Conditions: read-out: 0.1 Hz / IC50. The source says:
(§1) whole-cell patch clamp, peak INa on hNav1.4
In general terms: The patch-clamp technique gives a direct electrical read-out from membranes.

Assay [2] has as its target T2, hNav1.4 (Homo sapiens, UniProt P35499).
T2 construct: gene SCN4A
Nature of the assay: whole-cell patch clamp, peak INa. Particulars: read-out: 0.1 Hz / IC50. The format is cell-based.
Excerpt: as §1

T1 sequence (P35499 whole entry F1586C): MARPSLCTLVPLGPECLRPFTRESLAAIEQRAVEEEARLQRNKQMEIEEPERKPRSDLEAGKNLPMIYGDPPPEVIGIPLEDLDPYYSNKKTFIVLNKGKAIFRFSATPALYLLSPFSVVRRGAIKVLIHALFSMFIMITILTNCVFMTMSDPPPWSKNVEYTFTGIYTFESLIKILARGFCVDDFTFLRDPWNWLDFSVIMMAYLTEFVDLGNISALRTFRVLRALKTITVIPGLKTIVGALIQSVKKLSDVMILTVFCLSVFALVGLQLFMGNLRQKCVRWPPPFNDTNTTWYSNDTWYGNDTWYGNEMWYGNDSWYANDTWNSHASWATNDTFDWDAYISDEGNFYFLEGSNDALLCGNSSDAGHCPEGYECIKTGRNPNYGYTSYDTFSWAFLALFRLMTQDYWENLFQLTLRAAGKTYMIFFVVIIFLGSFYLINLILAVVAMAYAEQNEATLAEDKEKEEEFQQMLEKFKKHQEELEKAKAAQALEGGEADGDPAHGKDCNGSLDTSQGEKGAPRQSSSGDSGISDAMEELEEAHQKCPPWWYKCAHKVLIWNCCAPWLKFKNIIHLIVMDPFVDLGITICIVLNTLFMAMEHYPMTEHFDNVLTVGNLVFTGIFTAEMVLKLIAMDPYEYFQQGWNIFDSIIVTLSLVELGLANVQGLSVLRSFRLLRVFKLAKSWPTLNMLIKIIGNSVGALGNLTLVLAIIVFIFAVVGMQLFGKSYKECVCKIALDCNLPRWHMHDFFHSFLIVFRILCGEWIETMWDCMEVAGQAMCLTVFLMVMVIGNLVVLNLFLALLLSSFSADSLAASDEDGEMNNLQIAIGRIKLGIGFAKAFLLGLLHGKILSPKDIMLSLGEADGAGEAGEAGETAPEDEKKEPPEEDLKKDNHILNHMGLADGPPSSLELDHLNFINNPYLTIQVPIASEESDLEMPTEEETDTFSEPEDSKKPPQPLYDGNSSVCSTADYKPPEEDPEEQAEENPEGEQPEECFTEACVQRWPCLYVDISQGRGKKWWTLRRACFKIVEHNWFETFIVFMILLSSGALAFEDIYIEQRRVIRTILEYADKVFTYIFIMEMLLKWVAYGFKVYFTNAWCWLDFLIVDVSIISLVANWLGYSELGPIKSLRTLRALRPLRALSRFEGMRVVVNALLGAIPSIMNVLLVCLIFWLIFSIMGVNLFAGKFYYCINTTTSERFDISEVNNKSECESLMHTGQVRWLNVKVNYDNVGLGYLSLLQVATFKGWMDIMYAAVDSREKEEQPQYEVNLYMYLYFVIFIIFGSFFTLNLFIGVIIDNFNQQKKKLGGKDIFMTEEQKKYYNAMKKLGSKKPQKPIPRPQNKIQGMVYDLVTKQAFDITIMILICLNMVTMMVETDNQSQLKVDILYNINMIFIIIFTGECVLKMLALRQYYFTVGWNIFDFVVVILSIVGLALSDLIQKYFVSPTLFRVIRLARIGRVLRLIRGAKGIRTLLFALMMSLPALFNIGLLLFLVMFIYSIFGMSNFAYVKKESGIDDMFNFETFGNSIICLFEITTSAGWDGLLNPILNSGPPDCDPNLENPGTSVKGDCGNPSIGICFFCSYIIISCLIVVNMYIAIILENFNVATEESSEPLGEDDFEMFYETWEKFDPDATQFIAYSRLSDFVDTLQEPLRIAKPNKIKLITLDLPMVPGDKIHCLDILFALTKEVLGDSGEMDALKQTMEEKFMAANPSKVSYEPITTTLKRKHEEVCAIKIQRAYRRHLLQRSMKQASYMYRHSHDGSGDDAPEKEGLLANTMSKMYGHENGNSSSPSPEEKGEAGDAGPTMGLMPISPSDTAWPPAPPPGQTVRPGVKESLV
T2 sequence (P35499 whole entry): as the sequence (P35499 whole entry F1586C) above, with C1586F counted along it

With `CNC[C@H](C)Oc1cccc2ccccc12` [(S)-22b], the IC50 in assay [1] was found to be 215 ± 5 µM; in assay [2] it was 51 ± 2 µM.

The values are drawn from paper PMC4513211, “Inhibition of voltage-gated sodium channels by sumatriptan bioisosteres” (Frontiers in Pharmacology, 2015).
